Reference: patent US8293738B2, “Indazole inhibitors of kinase” (Abbott Laboratories, priority 2010, dated 2012)

Key:
Format in all cases: biochemical
[1] = target: T1, Aurora A (Homo sapiens, UniProt O14965); assay: Aurora A enzyme assay (time-resolved fluorescence, STK substrate-2); details: 1 mM ATP, 1 hour
T1 sequence (O14965 1-403): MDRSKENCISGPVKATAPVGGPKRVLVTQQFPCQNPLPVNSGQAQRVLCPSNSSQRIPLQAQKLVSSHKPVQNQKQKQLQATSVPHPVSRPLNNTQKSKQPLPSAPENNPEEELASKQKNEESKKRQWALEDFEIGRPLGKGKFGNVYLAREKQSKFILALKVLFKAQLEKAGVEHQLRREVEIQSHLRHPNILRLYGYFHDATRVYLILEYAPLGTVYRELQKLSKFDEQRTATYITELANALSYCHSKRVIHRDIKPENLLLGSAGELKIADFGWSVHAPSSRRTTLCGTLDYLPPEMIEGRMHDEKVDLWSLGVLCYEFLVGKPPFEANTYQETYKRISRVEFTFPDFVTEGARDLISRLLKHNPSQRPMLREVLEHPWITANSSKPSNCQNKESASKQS
Protocol: To determine Aurora A and C activity of representative compounds of the invention, Active Aurora A or C enzyme was incubated in wells of a 384 well plate with biotinylated STK substrate-2 (Upstate), 1 mM ATP, and various concentrations of inhibitors in a Hepes buffer, pH 7.4 containing MgCl2, sodium othrovanadate, and Triton X-100. After 1 hour, the reaction was stopped with EDTA and anti-phospho-STK antibody Europium Cryptate (Upstate) and SA-XL665 (Upstate) were added to detect the phosphopeptide. The amount of phosphorylation was determined by the time-resolved fluorescence ratio of signals at 665 nm and 615 nm. The IC50s were calculated by an exponential fit of the inhibition values with the inhibitor concentrations using Assay Explorer software.

[2] = target: T2, Aurora B (Homo sapiens, UniProt Q96GD4); assay: Aurora B enzyme assay (time-resolved fluorescence, histone H3 peptide); details: 1 mM ATP, 1 hour
T2 construct: Active Aurora B enzyme (recombinant residues 1-344)
Protocol: To determine Aurora B activity of representative compounds of the invention, Active Aurora B enzyme (recombinant residues 1-344) and INCENP (recombinant GST fusion protein (Upstate)) were incubated in wells of a 384 well plate with biotinylted histone H3 peptide residues 1-21 (Upstate), 1 mM ATP, and various concentrations of inhibitors in a HEPES buffer, pH 7.4 containing MgCl2, sodium othrovanadate, and Triton X-100. After 1 hour, the reaction was stopped with EDTA and anti-phospho-histone H3 Europium Cryptate (Cis-Bio) and SA-APC (Phycolink, Prozyme) were added to detect the phosphopeptide. The amount of phosphorylation was determined by the time-resolved fluorescence ratio of signals at 665 nm and 615 nm. The IC50's were calculated by an exponential fit of the inhibition values with the inhibitor concentrations using Assay Explorer software.

[3] = target: KDR (Homo sapiens, UniProt P35968); assay: KDR HTRF in vitro kinase assay; parameters: purified enzyme (His6-KDR 789-1354, MW 63 kD); details: 1 mM ATP, 60 minutes
Protocol: To determine the activity of the various kinases, a homogenous time-resolved fluorescence (HTRF) in vitro kinase assay was used. (Mathis, G., HTRF(R) Technology. J Biomol Screen, 1999. 4(6): p. 309-314; Alfred J. Kolb, Paul V. Kaplita, David J. Hayes, Young-Whan Park, Christine Pernell, John S. Major and Gerard Mathis, Drug Discovery Today, 1998, 3, 333-342.)
For example for KDR, 7 ng/well of purified enzyme (His6-KDR 789-1354, MW 63 kD) was mixed with 0.5 μM N-biotinylated substrate (Biotin-Ahx-AEEEYFFLA-amide (SEQ. ID. 1)), various concentrations of inhibitor in reaction buffer (50 mM HEPES, pH 7.1, mM MgCl2, 2 mM MnCl2, 0.1% BSA and 1 mM DTT, […] final volume), ATP (1 mM final conc.) in a black 384-well plate. After 60 minutes incubation at room temperature, the reaction was quenched by addition of a buffered EDTA solution (final approximate concentrations: 30 mM EDTA, 0.1% BSA, 0.1% Triton X-100 and 0.24M KF) and a solution of revelation agents (to give 0.084 ng/well streptavidin-XL-665 (Cis-Bio) and 6.5 ng/well antiphsophotyrosine mAb PT66-K Europium kryptate) was added to the reaction mixture. The quenched reaction was allowed to stand at room temperature for 3 hours and was then read in a time-resolved fluorescence detector (InVision, Perkin-Elmer) at 620 nm and 665 nm sequentially with excitation. The ratio between the signal of 620 nm and 665 nm was used in the calculation of the IC50.

T2 sequence (Q96GD4 whole entry, the tested form may be a part): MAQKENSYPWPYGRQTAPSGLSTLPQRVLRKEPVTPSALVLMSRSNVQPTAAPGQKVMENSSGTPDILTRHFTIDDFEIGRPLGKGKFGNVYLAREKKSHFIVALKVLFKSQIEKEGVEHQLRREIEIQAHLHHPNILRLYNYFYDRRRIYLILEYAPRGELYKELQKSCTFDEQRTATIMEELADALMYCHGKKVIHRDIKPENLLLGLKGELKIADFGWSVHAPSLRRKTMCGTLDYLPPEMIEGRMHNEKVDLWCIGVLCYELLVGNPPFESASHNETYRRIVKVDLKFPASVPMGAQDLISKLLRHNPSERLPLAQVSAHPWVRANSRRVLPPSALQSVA
T2 sequence (Q9NQS7 826-918 partner limits assumed): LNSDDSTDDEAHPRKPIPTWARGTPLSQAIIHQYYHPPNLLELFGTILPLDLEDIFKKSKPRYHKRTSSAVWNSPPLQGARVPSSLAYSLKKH
KDR, sequence (P35968 789-1354): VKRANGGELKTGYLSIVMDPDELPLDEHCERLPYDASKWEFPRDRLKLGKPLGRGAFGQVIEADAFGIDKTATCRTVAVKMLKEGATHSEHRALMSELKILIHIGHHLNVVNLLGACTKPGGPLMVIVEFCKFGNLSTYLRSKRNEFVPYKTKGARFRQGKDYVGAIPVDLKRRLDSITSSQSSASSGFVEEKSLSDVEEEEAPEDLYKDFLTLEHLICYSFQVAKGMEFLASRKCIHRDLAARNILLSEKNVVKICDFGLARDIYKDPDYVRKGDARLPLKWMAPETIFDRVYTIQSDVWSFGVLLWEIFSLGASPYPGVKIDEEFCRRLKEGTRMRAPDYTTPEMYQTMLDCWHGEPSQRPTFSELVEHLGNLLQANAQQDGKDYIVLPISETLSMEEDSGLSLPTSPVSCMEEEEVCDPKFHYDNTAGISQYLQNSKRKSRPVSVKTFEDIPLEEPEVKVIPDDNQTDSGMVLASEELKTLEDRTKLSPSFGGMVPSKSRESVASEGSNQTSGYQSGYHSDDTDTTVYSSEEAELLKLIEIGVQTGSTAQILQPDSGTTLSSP

Row | SMILES | IC50 [1] [nM] | IC50 [2] [nM] | IC50 [3] [nM]
1 | Cc1cccc(NC(=O)Nc2ccc(-c3ccc4c(-c5ccc[nH]5)n[nH]c4c3)cc2)c1 [Example 4, N-(3-methylphenyl)-N′-{4-[3-(1H-pyrrol-2-yl)-1H-indazol-6-yl]phenyl}urea] | 1460 | 207 | 291
2 | Cc1cccc(NC(=O)Nc2ccc(-c3ccc4c(-c5cnn(CCN6CCOCC6)c5)n[nH]c4c3)cc2)c1 [Example 5, N-(3-methylphenyl)-N′-(4-{3-[1-(2-morpholin-4-ylethyl)-1H-pyrazol-4-yl]-1H-indazol-6-yl}phenyl)urea] | > 12500 | 194 | 31.7
3 | Cc1cccc(NC(=O)Nc2ccc(-c3ccc4c(-c5ccsc5)n[nH]c4c3)cc2)c1 [Example 7, N-(3-methylphenyl)-N′-[4-(3-thien-3-yl-1H-indazol-6-yl)phenyl]urea] | > 12500 | > 12500 | 12300
4 | O=C(Nc1ccc(-c2ccc3c(-c4cnn(CCO)c4)n[nH]c3c2)cc1)Nc1cccc(C(F)(F)F)c1 [Example 11, N-(4-{3-[1-(2-hydroxyethyl)-1H-pyrazol-4-yl]-1H-indazol-6-yl}phenyl)-N′-[3-(trifluoromethyl)phenyl]urea] | > 12500 | 136 | 20.7
5 | CCCn1cc(-c2n[nH]c3cc(-c4ccc(NC(=O)Nc5cccc(F)c5)cc4)ccc23)cn1 [Example 13, N-(3-fluorophenyl)-N′-{4-[3-(1-propyl-1H-pyrazol-4-yl)-1H-indazol-6-yl]phenyl}urea] | 10900 | 86.4 | 217
6 | Cn1nccc1-c1n[nH]c2cc(-c3ccc(NC(=O)Nc4cccc(F)c4)cc3)ccc12 [Example 14, N-(3-fluorophenyl)-N′-{4-[3-(1-methyl-1H-pyrazol-5-yl)-1H-indazol-6-yl]phenyl}urea] | > 12500 | > 12500 | > 12500
7 | CC(C)(O)Cn1cc(-c2n[nH]c3cc(-c4ccc(NC(=O)Nc5cccc(F)c5)cc4)ccc23)cn1 [Example 15, N-(3-fluorophenyl)-N′-(4-{3-[1-(2-hydroxy-2-methylpropyl)-1H-pyrazol-4-yl]-1H-indazol-6-yl}phenyl)urea] | > 12500 | 142 | 6690
8 | Cc1cccc(NC(=O)Nc2cccc(-c3ccc4c(-c5cnn(C)c5)n[nH]c4c3)c2)c1 [Example 17, N-(3-methylphenyl)-N′-{3-[3-(1-methyl-1H-pyrazol-4-yl)-1H-indazol-6-yl]phenyl}urea] | > 12500 | 1320 | 48.8
9 | Cn1cc(-c2n[nH]c3cc(-c4ccc(NC(=O)Nc5cccc(C(F)(F)F)c5)cc4)ccc23)cn1 [Example 18, N-{4-[3-(1-methyl-1H-pyrazol-4-yl)-1H-indazol-6-yl]phenyl}-N′-[3-(trifluoromethyl)phenyl]urea] | > 12500 | 156 | 23.7
10 | Cn1cc(-c2n[nH]c3cc(-c4ccc(CNC(=O)Nc5cccc(F)c5)cc4)ccc23)cn1 [Example 24, N-(3-fluorophenyl)-N′-{4-[3-(1-methyl-1H-pyrazol-4-yl)-1H-indazol-6-yl]benzyl}urea] | > 12500 | 1030 | > 12500
11 | Cn1cc(-c2n[nH]c3cc(-c4ccc(NC(=O)Nc5cccc(OC(F)(F)F)c5)cc4)ccc23)cn1 [Example 25, N-{4-[3-(1-methyl-1H-pyrazol-4-yl)-1H-indazol-6-yl]phenyl}-N′-[3-(trifluoromethoxy)phenyl]urea] | > 12500 | 493 | 30.2
12 | Cn1cc(-c2n[nH]c3cc(-c4ccc(NC(=O)Nc5ccccc5OC(F)(F)F)cc4)ccc23)cn1 [Example 27, N-{4-[3-(1-methyl-1H-pyrazol-4-yl)-1H-indazol-6-yl]phenyl}-N′-[2-(trifluoromethoxy)phenyl]urea] | > 12500 | 773 | 97.6
